# Residue numbers refer to the chain shown, from its start.
# Key:
# wild type hA1AR = target: T1, wild type hA1AR (Homo sapiens, UniProt P30542); experiment: [3H]DPCPX radioligand displacement assay, CHO membranes; type: binding; details: fraction of high-affinity state; two-site model
# T1 sequence (P30542 1-326): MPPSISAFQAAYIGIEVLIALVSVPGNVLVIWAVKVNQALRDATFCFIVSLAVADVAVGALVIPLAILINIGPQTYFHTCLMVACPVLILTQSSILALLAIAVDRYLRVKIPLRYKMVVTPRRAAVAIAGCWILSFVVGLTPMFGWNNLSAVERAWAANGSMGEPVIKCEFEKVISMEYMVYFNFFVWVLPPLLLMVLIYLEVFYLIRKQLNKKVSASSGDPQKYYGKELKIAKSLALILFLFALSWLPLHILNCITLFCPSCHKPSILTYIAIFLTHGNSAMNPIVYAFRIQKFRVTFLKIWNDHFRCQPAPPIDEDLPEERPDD
# Experimental: (§1) Transient transfection of CHO cells with wild type or mutated hA1AR plasmid constructs was performed using a polyethylenimine (PEI) method. Cells were seeded in 10-cm culture dishes to achieve 50–60% confluency 24 h prior to transfection. On the day of transfection, cells were transfected with a PEI: DNA ratio of 3:1 and a plasmid DNA amount of 10 μg/dish. Moreover, 24 h post-transfection, the medium was refreshed, and 48 h after transfection, cells were collected and membranes were prepared as previously described. Membranes were aliquoted in 250 or 100 μL and stored at −80 °C. Membrane protein concentrations were determined using the BCA method.
# The displacement assays were performed as described previously. […] After the addition of 25 µL per well of the Microscint scintillation cocktail (PerkinElmer, Groningen, The Netherlands), the filter-bound radioactivity was measured by scintillation spectrometry in a Microbeta2® 2450 microplate counter (PerkinElmer).
# All experimental data were analyzed by GraphPad Prism 7.0 or 8.0 (GraphPad Software Inc., San Diego, CA, USA). Data from yeast liquid growth and [^35S]GTPγS binding assays were analyzed by non-linear regression using “log (agonist) vs. response (three parameters)” or “log (inhibitor) vs. response (three parameters)” to obtain potency (EC50), inhibitory potency (IC50), and efficacy (Emax or Imax) values. […]
# A1AR P86F^3.31 = test system: A1AR P86F^3.31; parameters: method as in PMID 9920910; details: result in words; cited from earlier work
# hA1AR H78L^3.23 = target: T2, hA1AR H78L^3.23 (Homo sapiens, UniProt P30542, H78L); experiment: [3H]DPCPX radioligand displacement assay, CHO membranes; type: binding; parameters: expressed in transfected cells; host or cells: CHO cells, transient; membranes; details: fraction of high-affinity state; two-site model
# T2 sequence (P30542 1-326 H78L): T1 sequence (P30542 1-326) with H78L
# Experimental: as §1
# (§2) The displacement assays were performed as described previously. […] Note, the number of cell membranes (10–25 µg) was adjusted to obtain (approximately) a 1500 DPM assay window for each mutant. […] Incubations were terminated after 1 h at 25 °C by rapid vacuum filtration through GF/B filter plates (PerkinElmer, Groningen, Netherlands) using a Perkin Elmer Filtermate-harvester. Afterward, filter plates were washed ten times with ice-cold buffer (50 mM Tris-HCl, pH 7.4) and dried at 55 °C for 30 min. After the addition of 25 µL per well of the Microscint scintillation cocktail (PerkinElmer, Groningen, The Netherlands), the filter-bound radioactivity was measured by scintillation spectrometry in a Microbeta2® 2450 microplate counter (PerkinElmer).
# (§3) All experimental data were analyzed by GraphPad Prism 7.0 or 8.0 (GraphPad Software Inc., San Diego, CA, USA). Data from yeast liquid growth and [^35S]GTPγS binding assays were analyzed by non-linear regression using “log (agonist) vs. response (three parameters)” or “log (inhibitor) vs. response (three parameters)” to obtain potency (EC50), inhibitory potency (IC50), and efficacy (Emax or Imax) values. The radioligand displacement curves were obtained from a statistically preferred one-site or two-site binding model. pKi values were calculated from pIC50 values using the Cheng–Prusoff equation, where KD values were obtained from the homologous competition assays from this study and calculated by non-linear regression using “one site–homologous” [62].
# hA1AR L134F^4.52 = target: T3, hA1AR L134F^4.52 (Homo sapiens, UniProt P30542, L134F); experiment: as above; type: binding; parameters: expressed in transfected cells; host or cells: CHO cells, transient; membranes; details: fraction of high-affinity state; two-site model
# T3 sequence (P30542 1-326 L134F): T1 sequence (P30542 1-326) with L134F
# Experimental: as §1, §2, §3
# hA1AR S246T^6.47 = target: T4, hA1AR S246T^6.47 (Homo sapiens, UniProt P30542, S246T); experiment: as above; type: binding; parameters: expressed in transfected cells; host or cells: CHO cells, transient; membranes; details: fraction of high-affinity state; two-site model
# T4 sequence (P30542 1-326 S246T): T1 sequence (P30542 1-326) with S246T
# Experimental: as §1, §2, §3
# hA1AR W188C^5.46 = target: T5, hA1AR W188C^5.46 (Homo sapiens, UniProt P30542, W188C); experiment: as above; type: binding; parameters: expressed in transfected cells; host or cells: CHO cells, transient; membranes; details: fraction of high-affinity state; two-site model
# T5 sequence (P30542 1-326 W188C): T1 sequence (P30542 1-326) with W188C
# Experimental: as §1, §2, §3
smiles,measurement,setting,value
"OC[C@H]1O[C@@H](n2cnc3c(NC4CCCC4)ncnc32)[C@H](O)[C@@H]1O [CPA, N^6-cyclopentyladenosine]",Fraction (High),wild type hA1AR,0.15 ± 0.03
same,CPA binding,A1AR P86F^3.31,abolished
same,Fraction (High),hA1AR H78L^3.23,0.33 ± 0.04
same,Fraction (High),hA1AR L134F^4.52,0.34 ± 0.03
same,Fraction (High),hA1AR S246T^6.47,0.26 ± 0.03
same,Fraction (High),hA1AR W188C^5.46,0.29 ± 0.01

# From article PMC9229843, “Cancer-Related Somatic Mutations in Transmembrane Helices Alter Adenosine A1 Receptor Pharmacology” (Molecules, 2022)
